Experimental data taken from ChEMBL document CHEMBL5726990, “Thiazolidinones as cellular anandamide uptake inhibitors and their use in the treatment of psychiatric or neurological disorders and inflammation, in particular neuroinflammation” (2019).

Experiment: [3H]-AEA Cellular Uptake: Screening for AEA cellular uptake inhibition was performed in a semi-automated procedure: Pipetting and washing steps were performed by a Biomek3000 laboratory workstation. First, required amounts of U937 cells were centrifuged at 100×g for 5 min and resuspended in RPMI (37° C.) to a final concentration of 2×10^6 cells/mL. Then, 250 μL of cell suspension (0.5×10^6 cells per sample) were transferred into AquaSil™ silanized glass vials (Chromacol 1.1-MTV) in 96-well format. After addition of 5 μL vehicle (DMSO) or compounds the cells were incubated at 37° C. for 15 min. As positive controls OMDM-2 and UCM707 were used at 10 μM in each run. The ETI-T compounds were measured at up to 7 concentrations in triplicates from 100 pM-100 μM. After pre-incubation, a mixture of 0.5 nM[ethanolamine-1-3H]-AEA, (60 Ci/mmol) and 99.5 nM of cold AEA (final 100 nM) was added and samples were incubated at 37° C. for another 15 min. The reaction was stopped by rapid filtration over UniFilter-96 GF/C filters (PerkinElmer) pre-soaked with PBS 0.25% BSA. Cells were washed three times with 100 μL ice-cold PBS buffer containing 1% fatty acid free BSA. After drying, 45 μL MicroScint 20 scintillation cocktail (PerkinElmer, Waltham, Mass., US) was added to the wells and the plate was sealed. Radioactivity was measured by liquid scintillation counting on a PerkinElmer Wallac Trilux MicroBeta 1450 during 2 min. Non-specific binding of [3H]AEA (100 nM) to the glass vials was never higher than 10%. IC50 values were calculated by GraphPad® by non-linear regression using the built-in log(inhibitor) vs. response-variable slope (four parameters) function.
Details: U-937

| SMILES | IC50 [µM] |
| --- | --- |
| CC/N=C1\S/C(=C\c2ccc(O)c(OCC)c2)C(=O)N1CC | 0.145 |
| O=C1/C(=C/c2ccc(O)cc2)S/C(=N\c2ccccc2)N1OC1=CC=CC1 | 0.434 |
| CCCN1C(=O)/C(=C\c2ccc(C(C)C)cc2)S/C1=N\c1ccccc1 | 0.355 |
